Test results taken from ChEMBL document CHEMBL4706719, “Androgen Receptor Degradation for Therapeutic Intervention of Prostate Cancer Drug Resistance” (ACS Med Chem Lett, 2021).

biological target: Androgen receptor (Homo sapiens) (UniProt P10275); assay: In vivo inhibition of AR in castrated CB17 mouse xenografted with human VCaP cells at 10 mg/kg, po via gavage measured after 16 hrs by ELISA relative to control

SMILES | inhibition [%]
CC1(C)[C@H](NC(=O)c2ccc(N3CCN(CCCCCOc4ccc5c(c4)C(=O)N([C@H]4CCC(=O)NC4=O)C5=O)CC3)nc2)C(C)(C)[C@H]1Oc1ccc(C#N)c(Cl)c1 | > 50
CC1(C)[C@H](NC(=O)c2cc(F)c(CCOCCCN3CCN(c4ccc5c(c4)C(=O)N(C4CCC(=O)NC4=O)C5=O)CC3)c(F)c2)C(C)(C)[C@H]1Oc1ccc(C#N)c(Cl)c1 (stereo partly specified) | < 50
CC1(C)[C@H](NC(=O)c2ccc(N3CCC(CN4CCN(c5cc6c(cc5F)C(=O)N(C5CCC(=O)NC5=O)C6=O)CC4)CC3)c(F)c2)C(C)(C)[C@H]1Oc1ccc(C#N)c(Cl)c1 (stereo partly specified) | > 50
CC1(C)[C@H](NC(=O)c2ccc(N3CCN(CCCOc4ccc5c(c4)C(=O)N(C4CCC(=O)NC4=O)C5=O)CC3)cc2)C(C)(C)[C@H]1Oc1ccc(C#N)c(Cl)c1 (stereo partly specified) | > 50
CC1(C)[C@H](NC(=O)c2ccc(N3CCC(CN4CCN(c5ccc6c(c5)C(=O)N(C5CCC(=O)NC5=O)C6=O)CC4)CC3)nn2)C(C)(C)[C@H]1Oc1ccc(C#N)c(Cl)c1 (stereo partly specified) | < 50
CC1(C)[C@H](NC(=O)c2cnc(N3CCN(CCCOc4ccc5c(c4)C(=O)N(C4CCC(=O)NC4=O)C5=O)CC3)cn2)C(C)(C)[C@H]1Oc1ccc(C#N)c(Cl)c1 (stereo partly specified) | > 50
CC1(C)[C@H](NC(=O)c2ccc(N3CCN(CCCCCOc4ccc5c(c4)C(=O)N(C4CCC(=O)NC4=O)C5=O)CC3)nc2)C(C)(C)[C@H]1Oc1ccc(C#N)c(C#N)c1 (stereo partly specified) | > 50

The next lines start with the values.

inhibition [%] | SMILES
> 50 | CC1(C)[C@H](NC(=O)c2ccc(CCN3CCN(c4ccc5c(c4)C(=O)N(C4CCC(=O)NC4=O)C5=O)CC3)cc2)C(C)(C)[C@H]1Oc1ccc(C#N)c(Cl)c1 (stereo partly specified)
> 50 | CC1(C)[C@H](NC(=O)c2ccc(N3CCC(CN4CCN(c5cc6c(cc5F)C(=O)N(C5CCC(=O)NC5=O)C6=O)CC4)CC3)nn2)C(C)(C)[C@H]1Oc1ccc(C#N)c(Cl)c1 (stereo partly specified)
> 50 | CC1(C)[C@H](NC(=O)c2ccc(N3CCC(CN4CCN(c5ccc6c(c5F)C(=O)N(C5CCC(=O)NC5=O)C6=O)CC4)CC3)cc2)C(C)(C)[C@H]1Oc1ccc(C#N)c(Cl)c1 (stereo partly specified)
> 50 | CC(C)N(CC1CCN(c2ccc(C(=O)N[C@H]3C(C)(C)[C@H](Oc4ccc(C#N)c(Cl)c4)C3(C)C)cc2)CC1)[C@H]1C[C@H](Oc2ccc3c(c2)C(=O)N(C2CCC(=O)NC2=O)C3=O)C1 (stereo partly specified)
